For 33 compounds, IC50 results are on record in US20240174647A1 (NEURON23, INC., priority 2022, published 2024).

What is called IC50 is the concentration at which inhibition is half-maximal. Higher therefore signals weaker potency in that assay.

Bounds are passed on as bounds.

This assay deals with wt human LRRK2, catalytic site (Homo sapiens (Human), UniProt Q5S007). Kind of assay: TR-FRET LanthaScreen Tb Kinase Activity Assay (LRRK2 kinase inhibition). The class given is biochemical. The settings on record: 2 nM wt human LRRK2, 400 nM fluorescein-ERM (LRRKtide) peptide, 38 μM ATP, 120 minutes at room temperature. The procedure: The compounds in Table 1 were tested for their inhibitory effect on LRRK2 kinase according to the following procedures.
Sequence of wt human LRRK2, catalytic site (Q5S007 1879-2138): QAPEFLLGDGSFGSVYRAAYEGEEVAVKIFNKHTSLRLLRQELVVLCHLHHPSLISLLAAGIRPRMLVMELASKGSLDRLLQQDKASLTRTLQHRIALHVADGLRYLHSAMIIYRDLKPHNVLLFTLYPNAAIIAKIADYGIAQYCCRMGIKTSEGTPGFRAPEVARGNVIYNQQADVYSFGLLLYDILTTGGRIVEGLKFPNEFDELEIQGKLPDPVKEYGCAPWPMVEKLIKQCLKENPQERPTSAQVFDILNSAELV
The protocol for basic TR-FRET LanthaScreen Tb Kinase Activity Assay inhibitor studies were as follows. LanthaScreen Kinase Activity Assays (ThermoFisher/USA) to evaluate inhibitors were performed by addition of 100 nL of test compound in corresponding DMSO dilutions/5 μL of kinase/fluorescein-ERM(LRRKtide) peptide mixture, 5 μL of ATP into 384 well small volume plates. After incubation for 120 minutes at room temperature, the detection reagents containing Tb-anti-pLRRKtide antibody were added to monitor phosphrylation level of peptide. Then, after 60 min minutes incubation at room temperature plates were read in Envision. Data analysis of emission ratios was according to LanthaScreen Tb Kinase Activity Assay protocol.
Kinase and assay components were adjusted to final concentrations according to the kit protocol. For LRRK2: 2 nM wt human LRRK2, catalytic site, catalytic site (ThermoFisher/USA), 400 nM peptide, 38 μM ATP in 1× Kinase Buffer A.
Basic protocol for TR-FRET LanthaScreen Tb Kinase Activity Assay inhibitor studies involved two steps: • Enzymatic step: Addition of 100 nL of test compound in corresponding DMSO dilutions, 5 μL of kinase/substrate mixture, 5 μL of ATP into 384 well small volume plates. Incubation for 120 minutes at room temperature. • Detection step: Addition of 10 μL EDTA & antibody, read plate after 60 minutes. Data analysis of emission ratios according to KinEASE assay protocol.
Kinase and assay components were adjusted to final concentrations according to the kit protocol.
In the table below, activity is provided as follows: +++=IC50 less than 50 nM; ++=IC50 between 50 nM and 200 nM; +=IC50>=200 nM
(In TR-FRET formats the signal depends on donor and acceptor labels being close together.)
In turn, `CNc1nc(Nc2cc(F)cc3c2cnn3C)ncc1C(F)(F)F` [Example 42, N2-(6-fluoro-1-methyl-1H-indazol-4-yl)-N4-methyl-5-(trifluoromethyl) pyrimidine-2,4-diamine] yielded a 50% inhibitory concentration (IC50) of less than 50 nM.

Consider `CNc1nc(Nc2cccc3cn[nH]c23)ncc1C(F)(F)F` [Example 75, N2-(1H-indazol-7-yl)-N4-methyl-5-(trifluoromethyl)pyrimidine-2,4-diamine], for which the IC50 was in the range of 50 to 200 nM.

`CCc1cc2cn[nH]c2cc1Nc1ncc(C(F)(F)F)c(NC)n1` [Example 122, N2-(5-ethyl-1H-indazol-6-yl)-N4-methyl-5-(trifluoromethyl)pyrimidine-2,4-diamine] had an IC50 of 50 to 200 nM. The result for `CNc1nc(Nc2cccc3nccn23)ncc1C(F)(F)F` [Example 121, N^2-imidazo[1,2-a]pyridin-5-yl-N^4-methyl-5-(trifluoromethyl)pyrimidine-2,4-diamine] reads not below 200 nM. `CNc1nc(Nc2c(OC)ccc3c2cnn3C)ncc1C(F)(F)F` [Example 37, N2-(5-methoxy-1-methyl-1H-indazol-4-yl)-N4-methyl-5-(trifluoromethyl) pyrimidine-2,4-diamine] showed an IC50 of less than 50 nM. `CNc1nc(Nc2ccc3cn(C)nc3c2OC)ncc1C(F)(F)F` [Example 20, N2-(7-methoxy-2-methyl-2H-indazol-6-yl)-N4-methyl-5-(trifluoromethyl)pyrimidine-2,4-diamine]: the 50% inhibitory concentration (IC50) was less than 50 nM. Take `N#CCn1ncc2c(Nc3ncc(C(F)(F)F)c(NC4CCCC4)n3)cccc21` [Example 95, 2-(4-((4-(cyclopentylamino)-5-(trifluoromethyl)pyrimidin-2-yl)amino)-1H-indazol-1-yl)acetonitrile]: the concentration for half-maximal inhibition (IC50) was less than 50 nM.

In turn, `COCCNc1nc(Nc2cccc3c2cnn3C(C)(C)C#N)ncc1C(F)(F)F` [Example 155, 2-[4-[[4-(2-methoxyethylamino)-5-(trifluoromethyl)pyrimidin-2-yl]amino]indazol-1-yl]-2-methyl-propanenitrile] registered a concentration for half-maximal inhibition (IC50) of less than 50 nM.

Turning to `CC(C)(C#N)n1ncc2c(Nc3ncc(C(F)(F)F)c(NCCF)n3)cccc21` [Example 144, 2-(4-((4-((2-fluoroethyl)amino)-5-(trifluoromethyl)pyrimidin-2-yl)amino)-1H-indazol-1-yl)-2-methylpropanenitrile], the IC50 was less than 50 nM. Turning to `FC(F)(F)c1cnc(Nc2cccc3c2cnn3CC2CC2)nc1NC1CC1` [Example 168, N^4-cyclopropyl-N^2-(1-(cyclopropylmethyl)-1H-indazol-4-yl)-5-(trifluoromethyl)pyrimidine-2,4-diamine], the IC50 is less than 50 nM. As for `CNc1nc(Nc2c(C)nn3ccccc23)ncc1C(F)(F)F` [Example 62, N4-methyl-N2-(2-methylpyrazolo[1,5-a]pyridin-3-yl)-5-(trifluoromethyl) pyrimidine-2,4-diamine], the concentration for half-maximal inhibition (IC50) was in the range of 50 to 200 nM.

`CS(=O)(=O)n1ncc2c(Nc3ncc(C(F)(F)F)c(N[C@@H]4CCOC4)n3)cccc21` [Example 148, (R)—N^2-(1-(methylsulfonyl)-1H-indazol-4-yl)-N-(tetrahydrofuran-3-yl)-5-(trifluoromethyl)pyrimidine-2,4-diamine] gave an IC50 of less than 50 nM. For `CNc1nc(Nc2cccc3cnn(C)c23)ncc1C(F)(F)F` [Example 76, N4-methyl-N2-(1-methyl-1-indazol-7-yl)-5-(trifluoromethyl)pyrimidine-2,4-diamine], the IC50 is not below 200 nM. Take `CNc1nc(Nc2cc(F)c3cn[nH]c3c2)ncc1C(F)(F)F` [Example 6, N2-(4-fluoro-1H-indazol-6-yl)-N4-methyl-5-(trifluoromethyl)pyrimidine-2,4-diamine]: the IC50 was less than 50 nM.

Turning to `Cc1ccc(Nc2ncc(C(F)(F)F)c(NC3CC3)n2)c2cnn(CCS(C)(=O)=O)c12` [Example 174, N4-cyclopropyl-N2-(7-methyl-1-(2-(methylsulfonyl)ethyl)-1H-indazol-4-yl)-5-(trifluoromethyl)pyrimidine-2,4-diamine], the IC50 is less than 50 nM.

Regarding `CNc1nc(Nc2cccc3[nH]nc(C)c23)ncc1C(F)(F)F` [Example 48, N4-methyl-N2-(3-methyl-1H-indazol-4-yl)-5-(trifluoromethyl)pyrimidine-2,4-diamine], the half-maximal inhibitory concentration (IC50) lay in the range of 50 to 200 nM.

For the compound `Cn1ncc2c(Nc3ncc(Cl)c(NC4CC4)n3)cccc21` [Example 71, 5-chloro-N4-cyclopropyl-N2-(1-methyl-1H-indazol-4-yl)pyrimidine-2,4-diamine], the IC50 was less than 50 nM. In the case of `CC(C)(O)Cn1ncc2c(Nc3ncc(C(F)(F)F)c(NC4CC4)n3)ccnc21` [Example 201, 1-(4-((4-(cyclopropylamino)-5-(trifluoromethyl)pyrimidin-2-yl)amino)-1H-pyrazolo[3,4-b]pyridin-1-yl)-2-methylpropan-2-ol], the IC50 was less than 50 nM.

Compound `CCNc1nc(Nc2cccc3c2cnn3C)ncc1Cl` [Example 70, 5-chloro-N4-ethyl-N2-(1-methyl-1H-indazol-4-yl)pyrimidine-2,4-diamine] had an IC50 of less than 50 nM.

Regarding `CNc1nc(Nc2cccc3c2cnn3C)ncc1C(F)(F)F` [Example 29, N4-methyl-N2-(1-methyl-1H-indazol-4-yl)-5-(trifluoromethyl)pyrimidine-2,4-diamine], the concentration for half-maximal inhibition (IC50) is less than 50 nM. The compound `CNc1nc(Nc2cc3c(cnn3C)cc2C)ncc1C(F)(F)F` [Example 13, N2-(1,5-dimethyl-1H-indazol-6-yl)-N4-methyl-5-(trifluoromethyl)pyrimidine-2,4-diamine] had a half-maximal inhibitory concentration (IC50) of less than 50 nM. For `CC(C)Nc1nc(Nc2ccc3c4c2cnn4CCO3)ncc1C(F)(F)F` [Example 180, N^4-isopropyl-N^2-(9-oxa-1,2-diazatricyclo[6.3.1.04,12]dodeca-2,4,6,8(12)-tetraen-5-yl)-5-(trifluoromethyl)pyrimidine-2,4-diamine], the IC50 was less than 50 nM. In turn, `CNc1nc(Nc2ccc3cnn(C)c3c2)ncc1C(F)(F)F` [Example 12, N4-methyl-N2-(1-methyl-1H-indazol-6-yl)-5-(trifluoromethyl)pyrimidine-2,4-diamine] displayed a 50% inhibitory concentration (IC50) of less than 50 nM.

`CNc1nc(Nc2ccc(CCC(=O)N3CCOCC3)c3c2cnn3C)ncc1C(F)(F)F` [Example 58, 3-(1-methyl-4-((4-(methylamino)-5-(trifluoromethyl)pyrimidin-2-yl)amino)-1H-indazol-7-yl)-1-morpholinopropan-1-one] came in with a 50% inhibitory concentration (IC50) of less than 50 nM. For the compound `CC(C)(O)Cn1ncc2c(Nc3ncc(C(F)F)c(NC4CC4)n3)cccc21` [Example 173, 1-[4-[[4-(cyclopropylamino)-5-(difluoromethyl)pyrimidin-2-yl]amino]indazol-1-yl]-2-methyl-propan-2-ol], the IC50 is less than 50 nM.

`CNc1nc(Nc2cccc3c2cnn3CC(C)(C)O)nc2[nH]nc(Cl)c12` [Example 183, 1-[4-[[3-chloro-4-(methylamino)-1H-pyrazolo [3,4-d]pyrimidin-6-yl]amino]indazol-1-yl]-2-methyl-propan-2-ol] displayed an IC50 of less than 50 nM. Turning to `Cn1ncc2c(Nc3ncc(C(F)(F)F)c(NC4CC4)n3)cccc21` [Example 68, N4-cyclopropyl-N2-(1-methyl-1H-indazol-4-yl)-5-(trifluoromethyl)pyrimidine-2,4-diamine], the IC50 is less than 50 nM.

The compound `CS(=O)(=O)CCn1ncc2c(Nc3ncc(C(F)(F)F)c(N[C@H]4C[C@@H]4F)n3)cccc21` [Example 199, N^4-((1S,2S)-2-fluorocyclopropyl)-N^2-(1-(2-(methylsulfonyl)ethyl)-1H-indazol-4-yl)-5-(trifluoromethyl)pyrimidine-2,4-diamine] showed an IC50 of less than 50 nM. Regarding `CNc1nc(Nc2c(C)n(C)c3ccccc23)ncc1C(F)(F)F` [Example 64, N2-(1,2-dimethyl-1H-indol-3-yl)-N4-methyl-5-(trifluoromethyl)pyrimidine-2,4-diamine], the IC50 was in the range of 50 to 200 nM. As for `CNc1nc(Nc2cccc3c2cnn3CC(C)(C)O)ncc1C(F)(F)F` [Example 97, 2-methyl-1-(4-((4-(methylamino)-5-(trifluoromethyl)pyrimidin-2-yl)amino)-1H-indazol-1-yl)propan-2-ol], the IC50 is less than 50 nM. As to `FCCNc1nc(Nc2cccc3c2cnn3CC(F)F)ncc1C(F)(F)F` [Example 142, N^2-[1-(2,2-difluoroethyl)indazol-4-yl]-N^4-(2-fluoroethyl)-5-(trifluoromethyl) pyrimidine-2,4-diamine], the IC50 is less than 50 nM.

`CNc1nc(Nc2cccc3c2cnn3S(=O)(=O)C2CC2)ncc1C(F)(F)F` [Example 33, N2-(1-(cyclopropylsulfonyl)-1H-indazol-4-yl)-N4-methyl-5-(trifluoromethyl)pyrimidine-2,4-diamine] registered a concentration for half-maximal inhibition (IC50) of less than 50 nM.

`CNc1nc(Nc2c(C)ccc3nn(C)cc23)ncc1C(F)(F)F` [Example 39, N2-(2,5-dimethyl-2H-indazol-4-yl)-N4-methyl-5-(trifluoromethyl)pyrimidine-2,4-diamine] came in with an IC50 not below 200 nM.
